Read-outs that look alike come from different tables or passages of the source.
Tests used:
Test in all cases: MIC alone and checkerboard with EDTA or polymyxin B
Assay type in all cases: cell-based
[1] = test system: K. pneumoniae; conditions: for MIC of EDTA in combination with NCL195: with NCL195 4 μg/ml; for MIC: Klebsiella pneumoniae, read-out: MIC, agent alone
Protocol: (§1) MICs for NCL812 and its analogs (serial two-fold dilutions commencing at 128 μg/ml) were determined (in duplicate) in round bottom 96-well microtitre trays (Sarstedt 82.1582.001), using the broth micro-dilution method recommended by the Clinical and Laboratory Standards Institute (CLSI). […] MIC50, MIC90 and MIC range for NCL812, NCL195 and NCL219 were calculated against each S. pneumoniae, S. aureus or VRE isolate. To assess the potential activity of NCL195 against Gram-negative bacteria, MICs against Acinetobacter spp, E. coli, K. pneumoniae, P. aeruginosa, Proteus spp and Neisseria meningitidis were performed in the presence or absence of 0.08 mM-20 mM EDTA in a standard checkerboard assay.

[2] = test system: P. aeruginosa; conditions: for MIC of polymyxin B in combination with NCL195: with NCL195 1 μg/ml; for MIC: Pseudomonas aeruginosa, read-out: MIC, agent alone
Protocol: as §1

[3] = test system: E. coli; conditions: for MIC of polymyxin B in combination with NCL195: with NCL195 0.25 μg/ml; for MIC: Escherichia coli, read-out: MIC, agent alone
Protocol: as §1

[4] = test system: A. baumannii; conditions: for MIC of polymyxin B in combination with NCL195: with NCL195 0.5 μg/ml; for MIC: Acinetobacter baumannii, read-out: MIC, agent alone
Protocol: as §1

## Polymyxin B sulfate
[1]; K. pneumoniae ATCC 4352
  MIC, agent alone: 0.25 µg/mL
[1]; K. pneumoniae ATCC 4352, with NCL195 0.5 μg/ml
  MIC of polymyxin B in combination with NCL195: 0.125 µg/mL
[1]; K. pneumoniae ATCC 33495
  MIC, agent alone: 0.25 µg/mL
[1]; K. pneumoniae ATCC 33495, with NCL195 0.25 μg/ml
  MIC of polymyxin B in combination with NCL195: 0.125 µg/mL
[2]; P. aeruginosa ATCC 27853
  MIC, agent alone: 0.5 µg/mL
  MIC of polymyxin B in combination with NCL195: 0.125 µg/mL
[2]; P. aeruginosa PA01
  MIC, agent alone: 0.5 µg/mL
  MIC of polymyxin B in combination with NCL195: 0.125 µg/mL
[3]; E. coli ATCC 11229
  MIC, agent alone: 0.25 µg/mL
  MIC of polymyxin B in combination with NCL195: 0.125 µg/mL
[3]; E. coli ATCC 25922
  MIC, agent alone: 0.25 µg/mL
  MIC of polymyxin B in combination with NCL195: 0.125 µg/mL
[4]; A. baumannii ATCC 12457
  MIC, agent alone: 0.5 µg/mL
  MIC of polymyxin B in combination with NCL195: 0.125 µg/mL
[4]; A. baumannii ATCC 19606
  MIC, agent alone: 0.5 µg/mL
  MIC of polymyxin B in combination with NCL195: 0.125 µg/mL

## O=C(O)CN(CCN(CC(=O)O)CC(=O)O)CC(=O)O [EDTA, Ethylenediaminetetraacetic acid]
[1]; K. pneumoniae ATCC 4352
  MIC of EDTA in combination with NCL195: 10000 µM
[1]; K. pneumoniae ATCC 33495
  MIC of EDTA in combination with NCL195: 10000 µM
[1]; ATCC4352, K. pneumoniae ATCC 4352
  MIC: > 30000 µM
[1]; ATCC33495, K. pneumoniae ATCC 33495
  MIC: > 30000 µM
[2]; P. aeruginosa ATCC 27853, with NCL195 2 μg/ml
  MIC of EDTA in combination with NCL195: 5000 µM
[2]; P. aeruginosa PA01, with NCL195 0.25 μg/ml
  MIC of EDTA in combination with NCL195: 1250 µM
[2]; ATCC27853, P. aeruginosa ATCC 27853
  MIC: 10000 µM
[2]; P. aeruginosa PA01
  MIC: 2500 µM
[3]; E. coli ATCC 11229, with NCL195 8 μg/ml
  MIC of EDTA in combination with NCL195: 625 µM
[3]; E. coli ATCC 25922, with NCL195 4 μg/ml
  MIC of EDTA in combination with NCL195: 2500 µM
[3]; ATCC11229, E. coli ATCC 11229
  MIC: 2500 µM
[3]; ATCC25922, E. coli ATCC 25922
  MIC: 10000 µM
[4]; A. baumannii ATCC 12457, with NCL195 4 μg/ml
  MIC of EDTA in combination with NCL195: 250 µM
[4]; A. baumannii ATCC 19606, with NCL195 2 μg/ml
  MIC of EDTA in combination with NCL195: 500 µM
[4]; ATCC12457, A. baumannii ATCC 12457
  MIC: 500 µM
[4]; ATCC19606, A. baumannii ATCC 19606
  MIC: 1000 µM
